From patent publication US5670514A, “Compositions for inhibiting bone loss” (priority 1996, dated 1997)

Target: T1, Human Type I Steroid 5α-Reductase (Homo sapiens, UniProt P18405)
T1 construct: Preparation of Type I 5α-Reductase from Human Scalp; from tissue; host or cells: human scalp skin (punch biopsies from hair transplant graft recipient sites), 100,000 x g pellet of homogenate
T1 sequence (P18405 1-259): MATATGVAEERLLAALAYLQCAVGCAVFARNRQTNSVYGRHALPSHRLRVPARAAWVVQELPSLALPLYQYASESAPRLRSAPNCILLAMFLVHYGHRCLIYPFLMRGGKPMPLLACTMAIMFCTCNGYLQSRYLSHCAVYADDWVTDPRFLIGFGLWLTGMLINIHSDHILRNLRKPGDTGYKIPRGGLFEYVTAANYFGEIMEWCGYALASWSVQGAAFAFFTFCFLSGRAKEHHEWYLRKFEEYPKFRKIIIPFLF
Test: Human Type I Steroid 5α-Reductase homogenate assay (human scalp enzyme; conversion of [3H]-testosterone to [3H]-5α-dihydrotestosterone and other 5α-reduced metabolites)
Format: biochemical
Conditions: 0.3 μM; compared to control reaction mixtures; 50 nM [3H]-testosterone, pH 7.5, 25°, 180 min
Excerpt: Methodology of Human Type I Steroid 5α-Reductase Assays
The subcutaneous tissue was cut away and discarded. The skin was frozen with liquid nitrogen and pulverized to powder. […] The homogenization procedure consisted of four 15 second pulses. Connective tissue was cleared from the probe with forceps between pulses. […] The pellet was resuspended by homogenization with a Dounce homogenizer using the same buffer solution. An aliquot was taken for protein determination by the Lowry method, Lowry, et al., Protein Measurement with the Folin Phenol Reagent, J. Biol. Chem., 193, 265-75 (1951). Aliquots of the enzyme preparation were stored at -80° until use.
The reaction was initiated by the addition of 0.5 mg of Type I 5α-reductase. The reaction mixture was incubated at 25° for 180 min, and terminated by the addition of 1 mL ice-cold stopping solution. […] The samples were prepared for high performance liquid chromatography by solid phase extraction. […] The reaction mixtures were then applied to the columns. The columns were subsequently washed with 5 mL of acetone:water (1:4), followed by 0.3 mL of methanol. The samples were then eluted with 3 mL of methanol and collected in 20 mL scintillation vials. Three mL of water was then added to each scintillation vial. […] The column temperature was maintained at 35° and the flow rate was 1.5 mL/min.

Row | Molecule | percent inhibition of Type I 5AR [%]
1 | CN1C(=O)CC[C@]2(C)c3ccc(-c4cccc(NC(=O)C(C)(C)C)c4)cc3CC[C@@H]12 [Example 34, (+)-(4aR)-(10bR)-4-methyl-8-(3-t-butylcarboxamidophenyl)-10b-methyl-1,2,3,4,4a,5,6,10b-octahydrobenzo[f]quinolin-3-one] | 13
2 | CN1C(=O)CC[C@]2(C)c3ccc(-c4ccc(-c5ccc(NC(=O)C(C)(C)C)s5)cc4)cc3CC[C@@H]12 [Example 222, (+)-(4aR)-(10bR)-4-methyl-8-(4-[(2-t-butylcarbonylamino]-5-thienyl]phenyl)-10b-methyl-1,2,3,4,4a,5,6,10b-octahydro-benzo[f]quinolin-3-one] | 86
3 | CN1C(=O)CC[C@]2(C)c3ccc(-c4cccc(NC(=O)C5CCN(Cc6ccccc6)CC5)c4)cc3CC[C@@H]12 [Example 209, (+)-(4aR)-(10bR)-4-methyl-8-(3-[1-benzyl-4-piperidinyl-carboxamido]phenyl)-10b-methyl-1,2,3,4,4a,5,6,10b-octahydrobenzo[f]quinolin-3-one] | 24
4 | (+)-(4aR)-(10bR)-4-methyl-8-benzyloxycarbonyl-10b-methyl-1,2,3,4,4a,5,6,10b-octahydrobenzo[f]quinolin-3-one [Example 144] | 90
